According to ChEMBL document CHEMBL1201862, “PubChem BioAssay data set” (2004):
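A five-concentration, 48-hour dose response in 96-well plates underlies each endpoint, interpolated linearly between surrounding concentrations. Abbreviation: GI50, concentration required for 50% inhibition of growth.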 Active and inactive are the calls of the source. Rule as the data show it: active = GI50 up to about 1.1 µM and inactive = higher.

Key:
Assay in all cases: NCI anticancer screen, dose series, 48 h
Malme-3M = system: Malme-3M
MDA-MB-435 = system: MDA-MB-435
NCI/ADR-RES = system: NCI/ADR-RES
T47D = system: T47D
SF-539 = system: SF-539
A498 = system: A498
SK-MEL-2 = system: SK-MEL-2
HOP-62 = system: HOP-62
NCI-H522 = system: NCI-H522
SW-620 = system: SW-620
UO-31 = system: UO-31
COLO 205 = system: COLO 205
UACC-257 = system: UACC-257
KM12 = system: KM12
NCI-H23 = system: NCI-H23
U-251 = system: U-251
SK-OV-3 = system: SK-OV-3
RPMI-8226 = system: RPMI-8226

Measured: GI50

CCn1c(=O)c2cn[nH]c2n(C)c1=O
inactive: Malme-3M > 100 µM | MDA-MB-435 > 100 µM | NCI/ADR-RES > 100 µM | T47D > 100 µM | SF-539 > 100 µM | A498 > 100 µM | SK-MEL-2 > 100 µM | HOP-62 > 100 µM | NCI-H522 > 100 µM | SW-620 > 100 µM | UO-31 > 100 µM | COLO 205 > 100 µM | UACC-257 > 100 µM | KM12 > 100 µM | NCI-H23 > 100 µM | U-251 > 100 µM | SK-OV-3 > 100 µM | RPMI-8226 > 100 µM

Nc1nc2c(C(=O)NCc3cccs3)nnn2c2cccc(Cl)c12
inactive: Malme-3M > 100 µM | MDA-MB-435 > 100 µM | NCI/ADR-RES > 100 µM | T47D 19.5 µM | SF-539 77.3 µM | A498 > 100 µM | SK-MEL-2 > 100 µM | HOP-62 > 100 µM | NCI-H522 > 100 µM | SW-620 91.2 µM | UO-31 87.5 µM | COLO 205 > 100 µM | UACC-257 > 100 µM | KM12 > 100 µM | NCI-H23 87.3 µM | U-251 > 100 µM | SK-OV-3 > 100 µM | RPMI-8226 39.7 µM

O=C(O)c1cc(C(=O)O)nc(C(=O)O)c1
inactive: Malme-3M > 100 µM | MDA-MB-435 > 100 µM | NCI/ADR-RES > 100 µM | T47D > 100 µM | SF-539 > 100 µM | A498 > 100 µM | SK-MEL-2 > 100 µM | HOP-62 > 100 µM | NCI-H522 > 100 µM | SW-620 > 100 µM | UO-31 > 100 µM | COLO 205 > 100 µM | UACC-257 > 100 µM | KM12 > 100 µM | NCI-H23 > 100 µM | U-251 > 100 µM | SK-OV-3 > 100 µM | RPMI-8226 > 100 µM

COc1ccc(/N=C(C)/C(C)=N/c2ccc(OC)cc2)cc1
inactive: Malme-3M > 100 µM | MDA-MB-435 8.95 µM | NCI/ADR-RES 62.8 µM | T47D 77.1 µM | SF-539 30.8 µM | A498 > 100 µM | SK-MEL-2 > 100 µM | HOP-62 > 100 µM | NCI-H522 > 100 µM | SW-620 63.1 µM | UO-31 6.97 µM | COLO 205 14.4 µM | UACC-257 56.9 µM | KM12 6.85 µM | NCI-H23 73.6 µM | U-251 > 100 µM | SK-OV-3 > 100 µM | RPMI-8226 25.1 µM

Cc1c(C=C(C#N)C#N)c(=O)n(C)c(=O)n1C
inactive: Malme-3M > 100 µM | MDA-MB-435 > 100 µM | NCI/ADR-RES > 100 µM | T47D > 100 µM | SF-539 > 100 µM | A498 > 100 µM | SK-MEL-2 > 100 µM | HOP-62 > 100 µM | NCI-H522 31.4 µM | SW-620 > 100 µM | UO-31 > 100 µM | COLO 205 > 100 µM | UACC-257 > 100 µM | KM12 > 100 µM | NCI-H23 > 100 µM | U-251 > 100 µM | SK-OV-3 > 100 µM | RPMI-8226 72.8 µM

CC1=C[C@H]([C@H]2C=C(C)C(C(N)=O)=CN2Cc2c(Cl)cccc2Cl)N(Cc2c(Cl)cccc2Cl)C=C1C(N)=O
inactive: Malme-3M > 75 µM | MDA-MB-435 > 75 µM | NCI/ADR-RES > 75 µM | T47D 37 µM | SF-539 > 75 µM | A498 55.3 µM | SK-MEL-2 > 75 µM | HOP-62 > 75 µM | NCI-H522 57.1 µM | SW-620 > 75 µM | UO-31 > 75 µM | COLO 205 > 75 µM | UACC-257 73.8 µM | KM12 55.5 µM | NCI-H23 > 75 µM | U-251 > 75 µM | SK-OV-3 > 75 µM | RPMI-8226 69.7 µM

CN(C)CCCc1c[nH]c2ccccc12
inactive: Malme-3M > 100 µM | MDA-MB-435 > 100 µM | NCI/ADR-RES > 100 µM | T47D > 100 µM | SF-539 > 100 µM | A498 > 100 µM | SK-MEL-2 > 100 µM | HOP-62 > 100 µM | NCI-H522 > 100 µM | SW-620 > 100 µM | UO-31 > 100 µM | COLO 205 > 100 µM | UACC-257 > 100 µM | KM12 > 100 µM | NCI-H23 > 100 µM | U-251 > 100 µM | SK-OV-3 > 100 µM | RPMI-8226 > 100 µM
